The text below walks through data of US20040116420A1 (priority 2001, published 2004).

In one test the test system is HSV-1. The experiment in a line: Antiviral activity, HSV-1 in Vero cells, plaque method. Format: cell-based. The settings on record: Human alphaherpesvirus 1, 20 hours, 90% inhibition of plaque formation. The method, then: An Assay Method for Antiviral Activity These complementary assay methods examine the capacity of a compound to inhibit the generation of new viruses and to inhibit the toxicity of the compound against the host cell. Toxicity indirectly decreases the generation of viruses. Thus, it is important to simultaneously conduct both assays in order to directly compare the results. The Vero cells were sown on a 96-well plate and then cultured overnight. The culture supernatant was removed, and 100 μl of 2% FBS-DMEM containing 50,000 plaque-forming units (hereinafter abbreviated as “pfu”) of HSV-1 was added. A viral solution was removed and 200 μl of 2% FBS-DMEM comprising a test compound was added. In this case, a substance to which 2% FBS-DMEM not comprising any test compound had been added was determined as a control. These infected cells were incubated in the presence of 5% CO2 at 37° C. for 20 hours, and the medium was once allowed to freeze at −80° C. The culture solution was dissolved, and the amount of viruses in the culture solution was assayed by the plaque method. The concentration of the test compound when it inhibited 90% of plaque formation relative to the control was determined to be EC 90.

For another test, the target named is T1, HSV-1 protease (Human herpesvirus 1, UniProt P10210).
T1 construct: 6xHis (N); made in house; host or cells: baculovirus expression system
T1 sequence (P10210 1-247): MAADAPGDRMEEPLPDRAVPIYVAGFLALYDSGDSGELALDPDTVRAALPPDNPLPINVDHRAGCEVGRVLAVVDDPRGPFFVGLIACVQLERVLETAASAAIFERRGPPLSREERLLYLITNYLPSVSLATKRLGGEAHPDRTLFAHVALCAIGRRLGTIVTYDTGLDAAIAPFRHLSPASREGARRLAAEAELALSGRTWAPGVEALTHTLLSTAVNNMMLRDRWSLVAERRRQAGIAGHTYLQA
The experiment in a line: Enzymatic assay for HSV-1 protease (assembly) inhibitor, fluorescence polarization. Format: biochemical. The settings on record: read-out: HSV-1 Enzyme inhibition IC50. The method, then:
An enzymatic assay method for an HSV-1 protease (assembly) inhibitor
The activity of an assembly protease was determined by fluorescence polarization. Biotin-gamma-amino butyrate-[…]-DTAF was used as a fluorescent substrate in accordance with an HSV-1 release and cleavage site. […] Changes in the sizes of fluorescent substrate molecules that increased with the use of avidin as a reaction terminator were assayed by fluorescence polarization.
The test compound was dissolved in DMF, and the resultant was diluted 5-fold with an assay buffer. 6.5 μl thereof was added to wells of a 96-well plate (a U-bottomed 96-well plate, Coster) that had previously been blocked with a blocking solution (10 mM Tris-HCl (pH 8.0), 150 mM sodium chloride, 0.05% Tween 20, 1 mg/ml of BSA). The enzyme was diluted to 21.3 μg/ml with an assay buffer (1M sodium citrate, 50 mM sodium phosphate (pH 7.4), 100 mM sodium chloride, 20% glycerol, 2 mM TCEP), and 48.5 μl of the resultant was added to each well. The plate was incubated at room temperature for 30 minutes, and 10 μl of 62.5 μg/ml substrate solution was then added to each well. The plate was incubated at room temperature for 60 minutes, and 50 μl of 2 mg/ml avidin phosphate buffer solution (50 mM sodium phosphate, 100 mM sodium chloride (pH 7.4)) was added to each well. The activity was determined in comparison with a compound without protease inhibitor using a microplate reader for fluorescence polarization.
HSV-1 protease was purified from a vaculovirus that had expressed a DNA construct encoding the reading frame for HSV-1UL26. This construct had further encoded 6 histidine residues at the amino terminus of the protease. These additional histidine residues impart affinity ligands purified by nickel-nitriloacetic acid-agarose (Qiagen). The purified protease was stored as a stock solution for a 20 mM HEPES buffer (pH 8.5, containing 20% v/v glycerin). This stock solution was diluted with an assay buffer and then used in the enzyme reaction.
In accordance with the cleavage specificity of the HSV-1 protease at the “release site” of the assembled protein, a specific substrate was synthesized (Diianni et al., J. Biol. Chem. 268, 2048 (1993)). This assembly protein-release site had the sequence • HTYLQA*SEKFKMW • , and the substrate used was biotin-gamma-amino butyrate-HTYLQA*SERFRIK-DTAF. This is a standard method for peptide synthesis, for example, as in the a method described in “The Practice of Peptide Synthesis” (Bodansky and Bodansky (1984)). The product was stored as a 2.5 mg/ml stock solution in DMF. The resultant was diluted to 62.5 μg/ml with a phosphate buffer (50 mM sodium phosphate, 100 mM sodium chloride, (pH 7.4)) immediately before its use.
An assay buffer (1M sodium citrate, 50 mM sodium phosphate (pH 7.4), 100 mM sodium chloride, 20% glycerol, 2 mM TCEP) was used to dilute a stock solution for the enzyme and that for the inhibitor.

In turn, `Cc1c(NC(=O)CCCNC(=O)c2ccncc2)ccc2nc(NC(C)(C)C(=O)N(C)CCc3ccccn3)oc(=O)c12` came in with an EC90 in the test on HSV-1 greater than 12500 nM. The IC50 at HSV-1 protease worked out at 500 nM.

In the test with HSV-1, `Cc1c(NC(=O)OC(C)(C)C)ccc2nc(NC(C)(C)C(=O)N(C)Cc3cccnc3)oc(=O)c12` [Compound No.117, {5-Methyl-2-[1-methyl-1-(methyl-pyridin-3-ylmethyl-carbamoyl)-ethylamino]-4-oxo-4H-benzo[d][1,3]oxazin-6-yl}-carbamic acid tert-butyl ester] showed a 90% effect concentration (EC90) greater than 12500 nM. Further, the IC50 on HSV-1 protease turned out to be 700 nM.

In the test with HSV-1, `Cc1c(NC(=O)OC(C)(C)C)ccc2nc(NC3(C(=O)N(C)Cc4cccnc4)CC3)oc(=O)c12` [Compound No.118, {5-Methyl-2-[1-(methyl-pyridin-3-ylmethyl-carbamoyl)-cyclopropylamino]-4-oxo-4H-benzo[d][1,3]oxazin-6-yl}-carbamic acid tert-butyl ester] yielded an EC90 greater than 12500 nM. The IC50 on HSV-1 protease came to 2300 nM.

Compound `Cc1c(NC(=O)OC(C)(C)C)ccc2nc(NC3(C(=O)N(C)Cc4cccnc4)CCCC3)oc(=O)c12` [Compound No.119, {5-Methyl-2-[1-(methyl-pyridin-3-ylmethyl-carbamoyl)-cyclopentylamino]-4-oxo-4H-benzo[d][1,3]oxazin-6-yl}-carbamic acid tert-butyl ester] returned an EC90 in the test on HSV-1 greater than 12500 nM. Moreover, at HSV-1 protease, the IC50 was 700 nM.

`Cc1c(NC(=O)OC(C)(C)C)ccc2nc(NC3(C(=O)N(C)Cc4ccncc4)CCCC3)oc(=O)c12` [Compound No.121, {5-Methyl-2-[1-(methyl-pyridin-4-ylmethyl-carbamoyl)-cyclopentylamino]-4-oxo-4H-benzo[d][1,3]oxazin-6-yl}-carbamic acid tert-butyl ester] came in with an EC90 with HSV-1 of 11500 nM. Further, at HSV-1 protease, the IC50 came to 2800 nM.

In the test with HSV-1, `Cc1c(NC(=O)OC(C)(C)C)ccc2nc(NC3(C(=O)N(C)CCc4ccccn4)CC3)oc(=O)c12` [Compound No.122, (5-Methyl-2-{1-[methyl-(2-pyridin-2-yl-ethyl)-carbamoyl]-cyclopropylamino}-4-oxo-4H-benzo[d][1,3]oxazin-6-yl)-carbamic acid tert-butyl ester] had a concentration for an effect of 90% (EC90) greater than 12500 nM. In addition, at HSV-1 protease, the IC50 amounted to 1600 nM.

`Cc1c(NC(=O)OC(C)(C)C)ccc2nc(NC3(C(=O)N(C)CCc4ccccn4)CCCC3)oc(=O)c12` [Compound No.123, (5-Methyl-2-{1-[methyl-(2-pyridin-2-yl-ethyl)-carbamoyl]-cyclopentylamino}-4-oxo-4H-benzo[d][1,3]oxazin-6-yl)-carbamic acid tert-butyl ester] gave an EC90 with HSV-1 of 9600 nM. The IC50 on HSV-1 protease came out at 600 nM.

Compound `Cc1c(NC(=O)OC(C)(C)C)ccc2nc(NC3(C(=O)N(C)CCc4ccccn4)CCCCC3)oc(=O)c12` [Compound No.124, (5-Methyl-2-{1-[methyl-(2-pyridin-2-yl-ethyl)-carbamoyl]-cyclohexylamino}-4-oxo-4H-benzo[d][1,3]oxazin-6-yl)-carbamic acid tert-butyl ester] gave an EC90 in the test with HSV-1 of 6100 nM. Also, the IC50 at HSV-1 protease was determined as 1000 nM.

In the test with HSV-1, `Cc1c(NC(=O)OC(C)(C)C)ccc2nc(NC3(C(=O)N(C)CCc4cccnc4)CC3)oc(=O)c12` [Compound No.125, (5-Methyl-2-{1-[methyl-(2-pyridin-3-yl-ethyl)-carbamoyl]-cyclopropylamino}-4-oxo-4H-benzo[d][1,3]oxazin-6-yl)-carbamic acid tert-butyl ester] returned an EC90 greater than 12500 nM. Moreover, the half-inhibitory concentration (IC50) at HSV-1 protease stood at 2100 nM.

Regarding `Cc1c(NC(=O)OC(C)(C)C)ccc2nc(NC3(C(=O)N(C)CCc4cccnc4)CCCC3)oc(=O)c12` [Compound No.126, (5-Methyl-2-{1-[methyl-(2-pyridin-3-yl-ethyl)-carbamoyl]-cyclopentylamino}-4-oxo-4H-benzo[d][1,3]oxazin-6-yl)-carbamic acid tert-butyl ester], the 90% effect level with HSV-1 (EC90) was put at 8600 nM. The IC50 on HSV-1 protease is 400 nM.

Compound `Cc1c(NC(=O)OC(C)(C)C)ccc2nc(NC3(C(=O)N(C)CCc4ccncc4)CC3)oc(=O)c12` [Compound No.127, (5-Methyl-2-{1-[methyl-(2-pyridin-4-yl-ethyl)-carbamoyl]-cyclopropylamino}-4-oxo-4H-benzo[d][1,3]oxazin-6-yl)-carbamic acid tert-butyl ester] gave a concentration for an effect of 90% (EC90) with HSV-1 greater than 12500 nM. The concentration for half-maximal inhibition (IC50) at HSV-1 protease came to 1800 nM.

For `Cc1c(NC(=O)OC(C)(C)C)ccc2nc(NC3(C(=O)N(C)CCc4ccncc4)CCCC3)oc(=O)c12` [Compound No.128, (5-Methyl-2-{1-[methyl-(2-pyridin-4-yl-ethyl)-carbamoyl]-cyclopentylamino}-4-oxo-4H-benzo[d][1,3]oxazin-6-yl)-carbamic acid tert-butyl ester], the 90% effect level in the test with HSV-1 (EC90) was put at 10100 nM. Besides, the half-inhibitory concentration (IC50) on HSV-1 protease worked out at 400 nM.

Take `Cc1c(NC(=O)OC(C)(C)C)ccc2nc(NCC(=O)N(C)CCc3ccccn3)oc(=O)c12` [Compound No.130, [5-methyl-2-({[methyl-(2-pyridin-2-yl-ethyl)-carbamoyl]-methyl}-amino)-4-oxo-4H-benzo[d][1,3]oxazin-6-yl]-carbamic Acid Tert-Butyl Ester]: the EC90 in the test on HSV-1 was greater than 20000 nM. Besides, the IC50 on HSV-1 protease came out at 400 nM.

With `Cc1c(NC(=O)OC(C)(C)C)ccc2nc(N(C)CC(=O)N(C)CCc3ccccn3)oc(=O)c12` [Compound No.131, [5-Methyl-2-(methyl-{[methyl-(2-pyridin-2-yl-ethyl)-carbamoyl]-methyl}-amino)-4-oxo-4H-benzo[d][1,3]oxazin-6-yl]-carbamic acid tert-butyl ester], the concentration for an effect of 90% (EC90) in the test with HSV-1 was greater than 20000 nM. In addition, the 50% inhibitory concentration (IC50) at HSV-1 protease amounted to 400 nM.

In turn, `Cc1c(NC(=O)OC(C)(C)C)ccc2nc(N[C@H](C)C(=O)N(C)CCc3ccccn3)oc(=O)c12` [Compound No.132, (5-Methyl-2-{1R-[methyl-(2-pyridin-2-yl-ethyl)-carbamoyl]-ethylamino}-4-oxo-4H-benzo[d][1,3]oxazin-6-yl)-carbamic acid tert-butyl ester] yielded an EC90 in the test with HSV-1 of 15800 nM. Further, the IC50 at HSV-1 protease worked out at 800 nM.

The compound `Cc1c(NC(=O)OC(C)(C)C)ccc2nc(NCCC(=O)N(C)CCc3ccccn3)oc(=O)c12` [Compound No.133, (5-Methyl-2-{2-[methyl-(2-pyridin-2-yl-ethyl)-carbamoyl]-ethylamino}-4-oxo-4H-benzo[d][1,3]oxazin-6-yl)-carbamic acid tert-butyl ester] gave a 90% effect concentration (EC90) in the test with HSV-1 greater than 20000 nM. In addition, on HSV-1 protease, the IC50 stood at 900 nM.

`Cc1c(NC(=O)c2cccs2)ccc2nc(NC(C)(C)C(=O)N(C)CCc3ccccn3)oc(=O)c12` [Compound No.134, Thiophene-2-carboxylic Acid (5-methyl-2-{1-methyl-1-[methyl-(2-pyridin-2-yl-ethyl)-carbamoyl]-ethylamino}-4-oxo-4H-benzo[d][1,3]oxazin-6-yl)-amide] came in with a concentration for an effect of 90% (EC90) in the test on HSV-1 greater than 12500 nM. Also, at HSV-1 protease, the concentration for half-maximal inhibition (IC50) is 900 nM.

`Cc1c(NC(=O)c2cccs2)ccc2nc(N[C@@H](C)C(=O)N(C)CCc3ccccn3)oc(=O)c12` [Compound No.135, Thiophene-2-carboxylic acid (5-methyl-2-{1S-[methyl-(2-pyridin-2-yl-ethyl)-carbamoyl]-ethylamino}-4-oxo-4H-benzo[d][1,3]oxazin-6-yl)-amide]: the EC90 in the test with HSV-1 is greater than 12500 nM. For the same compound, the IC50 on HSV-1 protease came out at 1300 nM.
